ChEMBL document CHEMBL5042487, “Design, synthesis, and biological activity evaluation of 2-(benzo[b]thiophen-2-yl)-4-phenyl-4,5-dihydrooxazole derivatives as broad-spectrum antifungal agents” (Eur J Med Chem, 2022)
Values after ≈ are worked out from the molar mass of the structure shown.

Experiments:
[1] = tested on: Candida albicans; experiment: Antifungal activity against fluconazole resistant Candida albicans CaR assessed as inhibition of fungal growth by NCCLS protocol based method; type: functional
[2] = Stability in human plasma assessed as compound remaining incubated for 60 mins by LC-MS/MS analysis; type: ADME, cell-free; conditions: read-out: Stability
[3] = Metabolic stability in human liver microsomes assessed as parent compound remaining incubated upto 60 mins by LC-MS/MS analysis; type: ADME, Microsome; conditions: read-out: Stability
[4] = Metabolic stability in human liver microsomes assessed as half life at 100 uM pre-incubated for 10 mins followed by NADPH-regenerating system and measured upto 60 mins by LC-MS/MS analysis; type: ADME, Microsome; conditions: time <=70 min
[5] = target: Cytochrome P450 2C9 (Homo sapiens, UniProt P11712); experiment: Inhibition of CYP2C9 in human liver microsomes incubated for 10 mins in presence of NADPH by LC/MS/MS analysis; type: ADME
Chain of Cytochrome P450 2C9 (P11712 whole entry): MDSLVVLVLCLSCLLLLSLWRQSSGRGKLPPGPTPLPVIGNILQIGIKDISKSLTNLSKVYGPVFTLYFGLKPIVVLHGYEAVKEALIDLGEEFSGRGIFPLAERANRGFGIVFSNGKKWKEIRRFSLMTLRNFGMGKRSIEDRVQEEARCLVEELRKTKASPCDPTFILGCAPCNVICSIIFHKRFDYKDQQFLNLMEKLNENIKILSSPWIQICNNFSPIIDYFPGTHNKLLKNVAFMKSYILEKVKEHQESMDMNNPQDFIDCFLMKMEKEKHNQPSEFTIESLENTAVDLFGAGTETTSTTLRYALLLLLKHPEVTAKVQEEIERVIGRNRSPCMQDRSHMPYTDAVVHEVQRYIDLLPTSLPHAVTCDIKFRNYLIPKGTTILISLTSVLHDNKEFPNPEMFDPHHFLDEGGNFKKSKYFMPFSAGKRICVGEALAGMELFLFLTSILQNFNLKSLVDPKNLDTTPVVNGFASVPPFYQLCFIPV

[6] = target: Cytochrome P450 2C19 (Homo sapiens, UniProt P33261); experiment: Inhibition of CYP2C19 in human liver microsomes incubated for 10 mins in presence of NADPH by LC/MS/MS analysis; type: ADME
Chain of Cytochrome P450 2C19 (P33261 whole entry): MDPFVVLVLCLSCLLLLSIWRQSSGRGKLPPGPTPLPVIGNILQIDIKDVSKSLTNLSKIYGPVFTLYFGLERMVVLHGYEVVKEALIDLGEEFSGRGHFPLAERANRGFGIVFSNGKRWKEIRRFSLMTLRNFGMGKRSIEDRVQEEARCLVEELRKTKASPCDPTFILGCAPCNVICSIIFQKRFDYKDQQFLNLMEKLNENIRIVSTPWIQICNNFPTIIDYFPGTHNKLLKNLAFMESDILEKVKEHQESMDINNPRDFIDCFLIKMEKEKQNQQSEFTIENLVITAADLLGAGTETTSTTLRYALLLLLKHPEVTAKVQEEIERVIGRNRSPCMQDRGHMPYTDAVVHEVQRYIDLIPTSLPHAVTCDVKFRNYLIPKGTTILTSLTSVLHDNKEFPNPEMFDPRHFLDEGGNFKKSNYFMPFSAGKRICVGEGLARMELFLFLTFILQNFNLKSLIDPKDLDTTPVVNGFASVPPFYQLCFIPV

[7] = tested on: Candida albicans; experiment: Antifungal activity against fluconazole and itraconazole resistant Candida albicans 17# assessed as inhibition of fungal growth by NCCLS protocol based method; type: functional
[8] = tested on: Aspergillus fumigatus; experiment: Antifungal activity against Aspergillus fumigatus CGMCC 3.7795 assessed as inhibition of fungal growth by NCCLS protocol based method; type: functional
[9] = Metabolic stability in human liver microsomes assessed as parent compound remaining at 100 uM pre-incubated for 10 mins followed by NADPH-regenerating system and measured upto 60 mins by LC-MS/MS analysis; type: ADME, Microsome; conditions: time <=70 min, read-out: Stability
[10] = target: Cytochrome P450 3A4 (Homo sapiens, UniProt P08684); experiment: Inhibition of CYP3A4 in human liver microsomes incubated for 10 mins in presence of NADPH by LC/MS/MS analysis; type: ADME
Chain of Cytochrome P450 3A4 (P08684 whole entry): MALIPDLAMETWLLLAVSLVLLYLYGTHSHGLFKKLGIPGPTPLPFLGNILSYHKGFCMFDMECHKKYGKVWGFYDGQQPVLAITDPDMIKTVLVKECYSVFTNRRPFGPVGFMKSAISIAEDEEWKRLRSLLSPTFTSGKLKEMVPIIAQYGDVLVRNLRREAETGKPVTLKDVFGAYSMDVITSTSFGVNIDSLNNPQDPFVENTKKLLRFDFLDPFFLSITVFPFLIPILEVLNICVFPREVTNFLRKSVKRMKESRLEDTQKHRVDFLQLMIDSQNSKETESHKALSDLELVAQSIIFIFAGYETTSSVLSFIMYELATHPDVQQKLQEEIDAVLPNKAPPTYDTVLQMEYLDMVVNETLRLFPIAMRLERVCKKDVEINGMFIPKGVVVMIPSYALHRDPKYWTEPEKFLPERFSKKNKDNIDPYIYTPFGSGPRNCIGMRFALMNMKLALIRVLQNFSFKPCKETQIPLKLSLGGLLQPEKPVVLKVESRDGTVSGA

[11] = tested on: Candida albicans; experiment: Antifungal activity against Candida albicans GIM 2.194 assessed as inhibition of fungal growth by NCCLS protocol based method; type: functional
[12] = tested on: Candida tropicalis; experiment: Antifungal activity against Candida tropicalis GIM 2.183 assessed as inhibition of fungal growth by NCCLS protocol based method; type: functional
[13] = Stability in human plasma assessed as compound remaining incubated for 120 mins by LC-MS/MS analysis; type: ADME, cell-free; conditions: 2 h
[14] = target: Cytochrome P450 2D6 (Homo sapiens, UniProt P10635); experiment: Inhibition of CYP2D6 in human liver microsomes incubated for 10 mins in presence of NADPH by LC/MS/MS analysis; type: ADME
Chain of Cytochrome P450 2D6 (P10635 whole entry): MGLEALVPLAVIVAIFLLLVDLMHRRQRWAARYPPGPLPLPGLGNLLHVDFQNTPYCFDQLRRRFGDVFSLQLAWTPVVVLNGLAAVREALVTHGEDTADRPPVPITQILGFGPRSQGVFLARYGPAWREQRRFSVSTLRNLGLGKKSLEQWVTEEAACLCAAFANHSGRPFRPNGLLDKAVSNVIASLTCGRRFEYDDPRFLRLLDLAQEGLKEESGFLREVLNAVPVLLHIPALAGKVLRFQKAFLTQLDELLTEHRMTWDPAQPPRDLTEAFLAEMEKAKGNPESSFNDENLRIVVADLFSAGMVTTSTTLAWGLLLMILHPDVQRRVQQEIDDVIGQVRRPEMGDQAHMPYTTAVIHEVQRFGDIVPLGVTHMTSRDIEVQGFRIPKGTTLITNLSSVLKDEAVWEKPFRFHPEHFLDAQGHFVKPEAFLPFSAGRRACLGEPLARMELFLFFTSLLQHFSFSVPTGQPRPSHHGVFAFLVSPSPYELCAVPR

[15] = Stability in human plasma assessed as half life incubated for 60 mins by LC-MS/MS analysis; type: ADME, cell-free
[16] = tested on: Candida albicans; experiment: Antifungal activity against Candida albicans SC5314 assessed as inhibition of fungal growth by NCCLS protocol based method; type: functional
[17] = tested on: Cryptococcus neoformans; experiment: Antifungal activity against Cryptococcus neoformans GIM 2.209 assessed as inhibition of fungal growth by NCCLS protocol based method; type: functional
[18] = target: T1, Cytochrome P450 1A2 (Homo sapiens, UniProt P05177); experiment: Inhibition of CYP1A2 in human liver microsomes incubated for 10 mins in presence of NADPH by LC/MS/MS analysis; type: ADME
T1 sequence (P05177 whole entry): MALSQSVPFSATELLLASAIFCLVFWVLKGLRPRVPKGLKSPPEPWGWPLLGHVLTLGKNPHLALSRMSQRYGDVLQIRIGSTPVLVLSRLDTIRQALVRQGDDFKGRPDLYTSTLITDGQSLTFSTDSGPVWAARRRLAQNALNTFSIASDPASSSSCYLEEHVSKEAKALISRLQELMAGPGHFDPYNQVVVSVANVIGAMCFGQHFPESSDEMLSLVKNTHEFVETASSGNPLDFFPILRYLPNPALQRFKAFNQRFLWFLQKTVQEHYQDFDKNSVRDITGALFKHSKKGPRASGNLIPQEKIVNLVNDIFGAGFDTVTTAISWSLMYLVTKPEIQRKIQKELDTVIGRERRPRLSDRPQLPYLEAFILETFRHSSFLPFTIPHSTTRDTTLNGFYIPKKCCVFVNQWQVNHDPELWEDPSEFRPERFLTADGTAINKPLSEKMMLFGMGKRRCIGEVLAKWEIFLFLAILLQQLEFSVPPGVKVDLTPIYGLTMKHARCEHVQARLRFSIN

[19] = Metabolic stability in human liver microsomes assessed as liver intrinsic clearance at 100 uM pre-incubated for 10 mins followed by NADPH-regenerating system and measured upto 60 mins by LC-MS/MS analysis; type: ADME, Microsome; conditions: time <=70 min, read-out: CLH
[20] = Metabolic stability in human liver microsomes assessed as microsomal intrinsic clearance at 100 uM pre-incubated for 10 mins followed by NADPH-regenerating system and measured upto 60 mins by LC-MS/MS analysis; type: ADME, Microsome; conditions: time <=70 min, read-out: CLH
[21] = AUC (0 to infinity) in Sprague-Dawley rat at 2 mg/kg, iv measured upto 24 hrs by LC/MS/MS analysis; type: ADME, organism-based; set-up: route intravenous, dose 2 mg/kg, time <=24; conditions: in vivo
[22] = Clearance in Sprague-Dawley rat at 2 mg/kg, iv measured upto 24 hrs by LC/MS/MS analysis; type: ADME, organism-based; conditions: in vivo
[23] = Volume of distribution at steady state in Sprague-Dawley rat at 2 mg/kg, iv measured upto 24 hrs by LC/MS/MS analysis; type: ADME, organism-based; conditions: in vivo, read-out: Vdss
[24] = Half life in Sprague-Dawley rat at 2 mg/kg, iv measured upto 24 hrs by LC/MS/MS analysis; type: ADME, organism-based; conditions: in vivo
[25] = Initial plasma concentration in Sprague-Dawley rat at 2 mg/kg, iv measured upto 24 hrs by LC/MS/MS analysis; type: ADME, organism-based
[26] = AUC(0 to last) in Sprague-Dawley rat at 2 mg/kg, iv measured upto 24 hrs by LC/MS/MS analysis; type: ADME, organism-based; set-up: route intravenous, dose 2 mg/kg, time <=24; conditions: in vivo

## Clc1ccc(C2(Cn3cncn3)COC(c3cc4ccc(Cl)cc4s3)=N2)cc1 (stereo unspecified)
[1]
  MIC: 0.5 µg/mL (≈ 1.16 µM)
[2]
  remaining at 1 h: 92.7%
[3]
  remaining at 1 h: 77.3%
[4]
  half-life at 100 µM: 1.16 h
[5]
  IC50: 1.5 µM
[6]
  IC50: 0.168 µM
[7]
  MIC: > 64 µg/mL
[8]
  MIC: 2 µg/mL (≈ 4.66 µM)
[9]
  remaining at 1 h, 100 µM: 49.9%
[10]
  IC50: 29.1 µM
[11]
  MIC: < 0.03 µg/mL
[12]
  MIC: 0.06 µg/mL (≈ 0.14 µM)
[13]
  Stability: 116.1%
[14]
  IC50: 47.6 µM
[15]
  half-life: > 4.82 h
[16]
  MIC: < 0.03 µg/mL
[17]
  MIC: 0.5 µg/mL (≈ 1.16 µM)
[18]
  IC50: 5.67 µM
[19]
  CLint scaled at 100 µM: 18 mL/min/kg
[20]
  microsomal CLint at 100 µM: 20 µL/min/mg

## Fc1ccc(C2(Cn3cncn3)COC(c3cc4ccc(Cl)cc4s3)=N2)cc1 (stereo unspecified)
[1]
  MIC: 0.5 µg/mL (≈ 1.21 µM)
[2]
  remaining at 1 h: 92.6%
[21]
  AUC(0-inf): 505 ng·h/mL
[3]
  remaining at 1 h: 82.6%
[4]
  half-life at 100 µM: 1.34 h
[5]
  IC50: 2.87 µM
[6]
  IC50: 1.04 µM
[7]
  MIC: > 64 µg/mL
[8]
  MIC: 0.5 µg/mL (≈ 1.21 µM)
[9]
  remaining at 1 h, 100 µM: 54.6%
[10]
  IC50: 10.1 µM
[11]
  MIC: < 0.03 µg/mL
[12]
  MIC: < 0.03 µg/mL
[13]
  Stability: 108.2%
[22]
  clearance: 69.4 mL/min/kg
[23]
  Vd: 10.3 L/kg
[24]
  half-life: 3.34 h
[14]
  IC50: 31.3 µM
[15]
  half-life: > 4.82 h
[16]
  MIC: < 0.03 µg/mL
[17]
  MIC: 0.25 µg/mL (≈ 0.606 µM)
[25]
  C0 at 24 h: 482 ng/mL
[18]
  IC50: 4.47 µM
[19]
  CLint scaled at 100 µM: 15.5 mL/min/kg
[26]
  AUC(0-t) at 24 h: 483 ng·h/mL
[20]
  microsomal CLint at 100 µM: 17.2 µL/min/mg
